PubChem BioAssay AID248 (DTP/NCI, 2004)
Where “and” joins values, the source holds several entries; their conditions need not be identical. Equal entries are not always repeated. Toxic doses and inconclusive results are not listed. Cut-off read from the data, not from the text of the source: active = T/C of 150% or more; inactive = T/C below 125%.

Test system: L1210 leukemia ip in BDF1 mice, survival T/C
Assay: NCI In Vivo Anticancer Drug Screen. Data for tumor model L1210 Leukemia (intraperitoneal) in B6D2F1 (BDF1) mice
Conditions: endpoint: mean survival time, higher = longer survival
In short: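 Tumor was transplanted into mice, which were then dosed with test compound or vehicle alone. Survival was recorded for each group, and the treated figure was expressed relative to the control figure.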

[1] = dose: 50.0 mg/kg/injection, schedule: Q01DX001 (ip), vehicle: carboxymethylcellulose (CMC)
[2] = dose: 100.0 mg/kg/injection, schedule: Q01DX009 (ip), vehicle: Klucel (hydroxypropylcellulose) (HPC)
[3] = dose: 200.0 mg/kg/injection, schedule: Q01DX009 (ip), vehicle: Klucel (hydroxypropylcellulose) (HPC)
[4] = dose: 12.5 mg/kg/injection, schedule: Q01DX009 (ip), vehicle: Klucel (hydroxypropylcellulose) (HPC)
[5] = dose: 25.0 mg/kg/injection, schedule: Q01DX009 (ip), vehicle: Klucel (hydroxypropylcellulose) (HPC)
[6] = dose: 50.0 mg/kg/injection, schedule: Q01DX009 (ip), vehicle: Klucel (hydroxypropylcellulose) (HPC)
[7] = dose: 1.56 mg/kg/injection, schedule: Q01DX009 (ip), vehicle: Klucel (hydroxypropylcellulose) (HPC)
[8] = dose: 3.12 mg/kg/injection, schedule: Q01DX009 (ip), vehicle: Klucel (hydroxypropylcellulose) (HPC)
[9] = dose: 6.25 mg/kg/injection, schedule: Q01DX009 (ip), vehicle: Klucel (hydroxypropylcellulose) (HPC)
[10] = dose: 50.0 mg/kg/injection, schedule: Q01DX001 (ip), vehicle: Klucel (hydroxypropylcellulose) (HPC)
[11] = dose: 100.0 mg/kg/injection, schedule: Q01DX001 (ip), vehicle: Klucel (hydroxypropylcellulose) (HPC)

Measured: T/C

NOCC(=O)O
inactive: dose: 5.0 mg/kg/injection, schedule: Q01DX Z (ip), vehicle: saline 112 % of control | dose: 8.0 mg/kg/injection, schedule: Q01DX Z (ip), vehicle: saline 97 % of control | dose: 12.0 mg/kg/injection, schedule: Q01DX Z (ip), vehicle: saline 103 % of control | dose: 12.5 mg/kg/injection, schedule: Q01DX001 (ip), vehicle: carboxymethylcellulose (CMC) 106 % of control | dose: 18.0 mg/kg/injection, schedule: Q01DX Z (ip), vehicle: saline 103 % of control | dose: 25.0 mg/kg/injection, schedule: Q01DX001 (ip), vehicle: carboxymethylcellulose (CMC) 97 % of control | [1] 95 % of control

Nc1cc2ccncc2c2sc3ccccc3c12
inactive: dose: 100.0 mg/kg/injection, schedule: Q01DX009 (ip), vehicle: saline 86 % of control | dose: 100.0 mg/kg/injection, schedule: Q04DX003 (ip), vehicle: saline 90 % of control | dose: 200.0 mg/kg/injection, schedule: Q01DX009 (ip), vehicle: saline 91 % of control | dose: 200.0 mg/kg/injection, schedule: Q04DX003 (ip), vehicle: saline 90 % of control | dose: 400.0 mg/kg/injection, schedule: Q01DX009 (ip), vehicle: saline 93 % of control | dose: 400.0 mg/kg/injection, schedule: Q04DX003 (ip), vehicle: saline 90 % of control

CCC(CO)NC1CCCC1 (configuration not stated)
inactive: dose: 75.0 mg/kg/injection, schedule: Q01DX001 (ip), vehicle: acid diluted with saline 100 % of control | dose: 150.0 mg/kg/injection, schedule: Q01DX001 (ip), vehicle: acid diluted with saline 100 % of control | dose: 300.0 mg/kg/injection, schedule: Q01DX001 (ip), vehicle: acid diluted with saline 100 % of control

Cc1ccc(NC2=NCCO2)cc1
inactive: [1] 104 % of control | dose: 100.0 mg/kg/injection, schedule: Q01DX001 (ip), vehicle: carboxymethylcellulose (CMC) 96 % of control | dose: 200.0 mg/kg/injection, schedule: Q01DX001 (ip), vehicle: carboxymethylcellulose (CMC) 98 % of control

O=C1OC(c2ccc([N+](=O)[O-])cc2)=N/C1=C\c1cc(Br)ccc1O
inactive: [2] 91 % of control | [3] 96 % of control | dose: 400.0 mg/kg/injection, schedule: Q01DX009 (ip), vehicle: Klucel (hydroxypropylcellulose) (HPC) 93 % of control

CCCCN(C(=O)CCl)C(C)(C)C(SSC(c1ccc(Cl)cc1)C(C)(C)N(CCCC)C(=O)CCl)c1ccc(Cl)cc1 (configuration not stated)
inactive: [4] 96 % of control | [5] 101 % of control | [6] 96 % of control

Cn1c(=O)n(C)c2nccnc21
inactive: dose: 12.5 mg/kg/injection, schedule: Q04DX002 (ip), vehicle: saline 108 % of control | dose: 25.0 mg/kg/injection, schedule: Q04DX002 (ip), vehicle: saline 105 % of control | dose: 50.0 mg/kg/injection, schedule: Q04DX002 (ip), vehicle: saline 94 % of control

CC(C)=CCN1CCC2(C)c3cc(O)ccc3CC1C2C (configuration not stated)
inactive: dose: 15.62 mg/kg/injection, schedule: Q04DX003 (ip), vehicle: Klucel (hydroxypropylcellulose) (HPC) 96 % of control | [5] 110 % of control | dose: 31.25 mg/kg/injection, schedule: Q04DX003 (ip), vehicle: Klucel (hydroxypropylcellulose) (HPC) 100 % of control | [6] 110 % of control | dose: 62.5 mg/kg/injection, schedule: Q04DX003 (ip), vehicle: Klucel (hydroxypropylcellulose) (HPC) 100 % of control | [2] 110 % of control | dose: 125.0 mg/kg/injection, schedule: Q04DX003 (ip), vehicle: Klucel (hydroxypropylcellulose) (HPC) 94 % of control | [3] 98 % of control | dose: 250.0 mg/kg/injection, schedule: Q04DX003 (ip), vehicle: Klucel (hydroxypropylcellulose) (HPC) 102 % of control

CC1C(O)c2ccccc2OC1N1CCOCC1 (configuration not stated)
inactive: dose: 50.0 mg/kg/injection, schedule: Q04DX002 (ip), vehicle: Klucel (hydroxypropylcellulose) (HPC) 96 % of control | dose: 100.0 mg/kg/injection, schedule: Q04DX002 (ip), vehicle: Klucel (hydroxypropylcellulose) (HPC) 100 % of control | dose: 200.0 mg/kg/injection, schedule: Q04DX002 (ip), vehicle: Klucel (hydroxypropylcellulose) (HPC) 93 % of control

O=c1cccccc1O.O=c1cccccc1O.[Cu]
inactive: [7] 97 % of control | [8] 94 % of control | dose: 6.0 mg/kg/injection, schedule: Q04DX003 (ip), vehicle: saline 94 % of control | [9] 94 % of control | dose: 12.0 mg/kg/injection, schedule: Q04DX003 (ip), vehicle: saline 95 % of control | dose: 25.0 mg/kg/injection, schedule: Q04DX003 (ip), vehicle: saline 102 % of control

CN1CC2(CCN(CC3COc4ccccc4O3)CC2)OC1=O (configuration not stated)
inactive: [10] 93 % of control | [11] 103 % of control | dose: 200.0 mg/kg/injection, schedule: Q01DX001 (ip), vehicle: Klucel (hydroxypropylcellulose) (HPC) 117 % of control | dose: 400.0 mg/kg/injection, schedule: Q01DX001 (ip), vehicle: Klucel (hydroxypropylcellulose) (HPC) 107 % of control

O=C(CCCN1CCC(O)(c2cccc(C(F)(F)F)c2)CC1)c1ccc(F)cc1
inactive: dose: 0.04 mg/kg/injection, schedule: Q03HX024 (ip), vehicle: Klucel (hydroxypropylcellulose) (HPC) 102 % of control | dose: 0.09 mg/kg/injection, schedule: Q03HX024 (ip), vehicle: Klucel (hydroxypropylcellulose) (HPC) 107 % of control | dose: 0.19 mg/kg/injection, schedule: Q03HX024 (ip), vehicle: Klucel (hydroxypropylcellulose) (HPC) 105 % of control | dose: 0.39 mg/kg/injection, schedule: Q03HX024 (ip), vehicle: Klucel (hydroxypropylcellulose) (HPC) 107 % of control | dose: 0.78 mg/kg/injection, schedule: Q03HX004 (ip), vehicle: Klucel (hydroxypropylcellulose) (HPC) 96 % of control | dose: 0.78 mg/kg/injection, schedule: Q03HX024 (ip), vehicle: Klucel (hydroxypropylcellulose) (HPC) 107 % of control | [7] 111 % of control | dose: 1.56 mg/kg/injection, schedule: Q03HX004 (ip), vehicle: Klucel (hydroxypropylcellulose) (HPC) 91 % of control | dose: 1.56 mg/kg/injection, schedule: Q03HX024 (ip), vehicle: Klucel (hydroxypropylcellulose) (HPC) 97 % of control | dose: 2.0 mg/kg/injection, schedule: Q01DX009 (ip), vehicle: Klucel (hydroxypropylcellulose) (HPC) 100 % of control | [8] 107 % of control and 122 % of control | dose: 3.12 mg/kg/injection, schedule: Q03HX024 (ip), vehicle: Klucel (hydroxypropylcellulose) (HPC) 100 % of control and 86 % of control | dose: 3.12 mg/kg/injection, schedule: Q04DX003 (ip), vehicle: Klucel (hydroxypropylcellulose) (HPC) 91 % of control and 101 % of control | dose: 4.0 mg/kg/injection, schedule: Q01DX009 (ip), vehicle: Klucel (hydroxypropylcellulose) (HPC) 92 % of control | dose: 6.25 mg/kg/injection, schedule: Q01DX001 (ip), vehicle: Klucel (hydroxypropylcellulose) (HPC) 106 % of control | [9] 110 % of control | dose: 6.25 mg/kg/injection, schedule: Q04DX003 (ip), vehicle: Klucel (hydroxypropylcellulose) (HPC) 100 % of control and 102 % of control and 108 % of control | dose: 12.5 mg/kg/injection, schedule: Q01DX001 (ip), vehicle: Klucel (hydroxypropylcellulose) (HPC) 106 % of control | [4] 121 % of control | dose: 12.5 mg/kg/injection, schedule: Q04DX003 (ip), vehicle: Klucel (hydroxypropylcellulose) (HPC) 94 % of control and 103 % of control | dose: 18.75 mg/kg/injection, schedule: Q01DX001 (ip), vehicle: Klucel (hydroxypropylcellulose) (HPC) 91 % of control | dose: 25.0 mg/kg/injection, schedule: Q01DX001 (ip), vehicle: Klucel (hydroxypropylcellulose) (HPC) 104 % of control and 119 % of control and 123 % of control | [5] 91 % of control | dose: 25.0 mg/kg/injection, schedule: Q04DX003 (ip), vehicle: Klucel (hydroxypropylcellulose) (HPC) 107 % of control and 117 % of control | dose: 37.5 mg/kg/injection, schedule: Q01DX001 (ip), vehicle: Klucel (hydroxypropylcellulose) (HPC) 103 % of control | [10] 123 % of control | [6] 92 % of control | dose: 50.0 mg/kg/injection, schedule: Q04DX003 (ip), vehicle: Klucel (hydroxypropylcellulose) (HPC) 97 % of control and 116 % of control | dose: 75.0 mg/kg/injection, schedule: Q01DX001 (ip), vehicle: Klucel (hydroxypropylcellulose) (HPC) 91 % of control | [11] 110 % of control and 115 % of control and 121 % of control | dose: 100.0 mg/kg/injection, schedule: Q04DX003 (ip), vehicle: Klucel (hydroxypropylcellulose) (HPC) 116 % of control | dose: 150.0 mg/kg/injection, schedule: Q01DX001 (ip), vehicle: Klucel (hydroxypropylcellulose) (HPC) 100 % of control
